Laboratory results taken from patent publication US8476253B2, “Amide derivative” (Daiichi Sankyo Company, Limited, priority 2009, dated 2013).
pKi: −log10 of the molar value. Counter-ions that a name gives are not always drawn. Like-named read-outs stand apart in the source and are kept apart here.

Tests used:
[1] = biological target: T1, human NK2 receptor (Homo sapiens, UniProt P21452); experiment: Test for binding to human NK2 receptor
T1 construct: expressed in transfected cells; host or cells: COS cells
T1 sequence (P21452 1-398): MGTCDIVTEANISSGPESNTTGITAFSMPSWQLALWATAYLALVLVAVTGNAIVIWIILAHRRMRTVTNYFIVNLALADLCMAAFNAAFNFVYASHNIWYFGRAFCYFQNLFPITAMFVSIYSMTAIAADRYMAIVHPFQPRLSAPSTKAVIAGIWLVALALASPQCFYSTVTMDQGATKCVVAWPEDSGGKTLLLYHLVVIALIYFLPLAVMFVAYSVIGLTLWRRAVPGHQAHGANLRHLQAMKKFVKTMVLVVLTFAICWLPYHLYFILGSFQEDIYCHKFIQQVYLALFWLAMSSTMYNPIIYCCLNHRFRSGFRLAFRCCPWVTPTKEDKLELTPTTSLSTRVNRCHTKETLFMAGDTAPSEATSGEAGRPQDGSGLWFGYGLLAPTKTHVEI
Method in brief: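 Radioligand binding with [^3H]SR 48968 on cryopreserved COS cells expressing human NK2 receptor (5.0×10^5 cells/mL), in 50 mM Tris-HCl pH 7.4 with BSA, MnCl2 and protease inhibitors. Bound label collected on PEI-treated GF/B filters, counted by liquid scintillation; Ki derived from IC50 and radioligand Kd.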

[2] = test system: muscarine M3 receptor; experiment: Effect of suppressing methacholine-induced airway contraction (in vivo, intratracheal administration); parameters: species or system guinea pig; settings: guinea pigs, intratracheal administration 60 minutes before 30 μg/kg i.v. methacholine; AUC of increase in airway pressure over 10 minutes
Method in brief: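 Anesthetized, gallamine-paralysed, ventilated male Hartley guinea pigs (350–550 g); compound in 5% glucose given intratracheally 60 min before 30 μg/kg i.v. methacholine. Airway pressure AUC over 10 min scored; ID50 from inhibition versus 5% glucose vehicle group.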

[3] = biological target: T2, neurokinin NK1 receptor (Cavia porcellus, UniProt P30547); experiment: Effect of suppressing substance P-induced airway contraction (in vivo, intratracheal administration); parameters: species or system guinea pig; settings: guinea pig; guinea pigs, intratracheal administration 60 minutes before 20 μg/kg i.v. SP; AUC of increase in airway pressure over 10 minutes; read-out: ID50 (the source's name)
T2 construct: Using healthy guinea pigs (body weight, 350 to 550 g; Hartley male guinea pigs); from tissue; host or cells: live anaesthetised Hartley male guinea pigs (airway, in vivo)
T2 sequence (P30547 whole entry): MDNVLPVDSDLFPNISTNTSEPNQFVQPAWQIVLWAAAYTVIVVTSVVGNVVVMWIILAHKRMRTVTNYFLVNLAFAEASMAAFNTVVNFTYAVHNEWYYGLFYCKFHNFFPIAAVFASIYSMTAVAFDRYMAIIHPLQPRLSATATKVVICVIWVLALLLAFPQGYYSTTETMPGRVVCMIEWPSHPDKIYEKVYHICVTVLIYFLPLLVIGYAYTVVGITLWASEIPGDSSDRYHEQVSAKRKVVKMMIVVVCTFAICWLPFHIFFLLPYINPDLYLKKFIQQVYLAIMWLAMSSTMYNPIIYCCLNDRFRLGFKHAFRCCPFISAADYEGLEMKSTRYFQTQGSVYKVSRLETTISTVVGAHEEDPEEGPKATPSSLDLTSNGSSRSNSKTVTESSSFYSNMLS
Experimental: Using healthy guinea pigs (body weight, 350 to 550 g; Hartley male guinea pigs), the effect of suppressing airway contraction induced by substance P (SP), which is an NK1 receptor agonist, was examined by a modified method of Konzett-Roessler (Naunyn-Schmiedebergs Arch. Exp. Pathol. Pharmakol. 195, 71 [1940]) using airway pressure as an indicator.
A tracheal cannula and a venous cannula were attached to a guinea pig anesthetized with pentobarbital (50 mg/mL solution, 0.40 to 0.50 mL/body, subcutaneous administration). An arterial cannula filled with heparin-containing physiological saline (100 U/mL) was further attached, and blood pressure and heart rate were monitored via an amplifier and an instantaneous heart rate meter. Subsequently, gallamine (20 mg/body, intravenous administration) was administered to terminate spontaneous breathing, and then 10 mL/kg of positive pressure breathing (Ugo-Basile Biological Research Apparatus, Cat. No. 7025) was rapidly performed at 60 times/min. The airway pressure during artificial breathing was detected with a pressure transducer (TP-200T or TP-400T; Nihon Kohden Corporation) attached to a side branch of the tracheal cannula, amplified (AP-601G; Nihon Kohden Corporation), and recorded in a recorder. After the airway pressure, blood pressure, and heart rate were stabilized, 20 μg/kg of SP was intravenously administered from the venous cannula to induce airway contraction, and the airway pressure was measured for the following 10 minutes.
The test substance was dissolved in a 5% glucose solution, a 0.5 mL/kg solution was intratracheally administered with an intratracheal administration apparatus (model 1A-1B; Penn-Century, Inc.) 60 minutes before stimulation with SP.
The AUC of increase in the airway pressure over 10 minutes after administration of SP was determined as the intensity of SP-induced airway contraction and calculated as an ID50 value from the inhibition rate based on the value of the control group (5% glucose solution intratracheal administration group).

Which results are given for CN(CCN1CCC(OC(=O)Nc2ccccc2-c2ccccc2)CC1)C(=O)CCCCCNc1ccc(C(=O)N(CCCN(C)C(=O)CO[C@H]2Cc3ccccc3C23CCN(CC[C@@]2(c4ccc(F)cc4)CN(C(=O)c4cc(C(F)(F)F)cc(C(F)(F)F)c4)CO2)CC3)C2CC2)cc1 [Example 25, 1-(2-{[6-({4-[{3-[({[(2S)-1′-{2-[(5R)-3-[3,5-Bis(trifluoromethyl)benzoyl]-5-(4-fluorophenyl)-1,3-oxazolidin-5-yl]ethyl}-2,3-dihydrospiro[indene-1,4′-piperidin]-2-yl]oxy}acetyl)(methyl)amino]propyl}(cyclopropyl)carbamoyl]phenyl}amino)hexanoyl](methyl)amino}ethyl)piperidin-4-yl biphenyl-2-ylcarbamate trihydrochloride]?
pKi [1]: 9.11; ID50 [2]: 0.0459 mg/kg; ED50 [3]: 0.0437 mg/kg

With Cc1nc(NCCCCCC(=O)N(C)CCN2CCC(OC(=O)Nc3ccccc3-c3ccccc3)CC2)sc1C(=O)N(C)CCCN(C)C(=O)CO[C@H]1Cc2ccccc2C12CCN(CC[C@@]1(c3ccc(F)cc3)CN(C(=O)c3cc(C(F)(F)F)cc(C(F)(F)F)c3)CO1)CC2 [Example 105, 1-(2-{[6-({5-[{3-[({[(2S)-1′-{2-[(5R)-3-[3,5-Bis(trifluoromethyl)benzoyl]-5-(4-fluorophenyl)-1,3-oxazolidin-5-yl]ethyl}-2,3-dihydrospiro[indene-1,4′-piperidin]-2-yl]oxy}acetyl)(methyl)amino]propyl}(methyl)carbamoyl]-4-methyl-1,3-thiazol-2-yl}amino)hexanoyl](methyl)amino}ethyl)piperidin-4-yl biphenyl-2-ylcarbamate trihydrochloride] as the molecule, how does the pKi [1] read?
The pKi was 9.07.

And the ID50 [2]?
The ID50 was 0.04 mg/kg.

And the ED50 [3]?
The ED50 was 0.0273 mg/kg.

Which results are given for CN(CCN1CCC(OC(=O)Nc2ccccc2-c2ccccc2)CC1)C(=O)CCCCCCN(C)c1ccc(C(=O)N(C)CCCN(C)C(=O)CO[C@H]2Cc3ccccc3C23CCN(CC[C@@]2(c4ccc(F)cc4)CN(C(=O)c4cc(C(F)(F)F)cc(C(F)(F)F)c4)CO2)CC3)cc1 [Example 40, 1-{2-[{7-[{4-[{3-[({[(2S)-1′-{2-[(5R)-3-[3,5-Bis(trifluoromethyl)benzoyl]-5-(4-fluorophenyl)-1,3-oxazolidin-5-yl]ethyl}-2,3-dihydrospiro[indene-1,4′-piperidin]-2-yl]oxy}acetyl)(methyl)amino]propyl}(methyl)carbamoyl]phenyl}(methyl)amino]heptanoyl}(methyl)amino]ethyl}piperidin-4-yl biphenyl-2-ylcarbamate trihydrochloride]?
pKi [1]: 9.08; ID50 [2]: 0.0754 mg/kg; ED50 [3]: 0.0191 mg/kg

How did the pKi [1] turn out when CN(CCN1CCC(OC(=O)Nc2ccccc2-c2ccccc2)CC1)C(=O)CCCCCNc1ccc(C(=O)N2CCCN(C(=O)CO[C@H]3Cc4ccccc4C34CCN(CC[C@@]3(c5ccc(F)cc5)CN(C(=O)c5cc(C(F)(F)F)cc(C(F)(F)F)c5)CO3)CC4)CC2)cc1 [Example 110, 1-{2-[{6-[(4-{[4-({[(2S)-1′-{2-[(5R)-3-[3,5-Bis(trifluoromethyl)benzoyl]-5-(4-fluorophenyl)-1,3-oxazolidin-5-yl)ethyl}-2,3-dihydrospiro[indene-1,4′-piperidin]-2-yl]oxy}acetyl)-1,4-diazepan-1-yl]carbonyl}phenyl)amino]hexanoyl}(methyl)amino]ethyl}piperidin-4-yl biphenyl-2-ylcarbamate trihydrochloride] was run?
Its pKi is 9.22.

What about the ID50 [2] of the same molecule?
The ID50 was 0.0318 mg/kg.

What about the ED50 [3] of the same molecule?
The ED50 was 0.0174 mg/kg.

Which results are given for CN(CCN1CCC(OC(=O)Nc2ccccc2-c2ccccc2)CC1)C(=O)CCCNc1ccc(C(=O)N(C)CCCN(C)C(=O)CO[C@H]2Cc3ccccc3C23CCN(CC[C@@]2(c4ccc(F)cc4)CN(C(=O)c4cc(C(F)(F)F)cc(C(F)(F)F)c4)CO2)CC3)cc1 [Example 34, 1-(2-{[4-({4-[{3-[({[(2S)-1′-{2-[(5R)-3-[3,5-Bis(trifluoromethyl)benzoyl]-5-(4-fluorophenyl)-1,3-oxazolidin-5-yl]ethyl}-2,3-dihydrospiro[indene-1,4′-piperidin]-2-yl]oxy}acetyl)(methyl)amino]propyl}(methyl)carbamoyl]phenyl}amino)butanoyl](methyl)amino}ethyl)piperidin-4-yl biphenyl-2-ylcarbamate trihydrochloride]?
pKi [1]: 9.27; ID50 [2]: 0.0251 mg/kg; ED50 [3]: 0.0308 mg/kg

How did the pKi [1] turn out when CN(CCN1CCC(OC(=O)Nc2ccccc2-c2ccccc2)CC1)C(=O)CCCCNc1ccc(C(=O)N(C)CCCN(C)C(=O)CO[C@H]2Cc3ccccc3C23CCN(CC[C@@]2(c4ccc(F)cc4)CN(C(=O)c4cc(C(F)(F)F)cc(C(F)(F)F)c4)CO2)CC3)cc1 [Example 32, 1-(2-{[5-({4-[{3-[({[(2S)-1′-{2-[(5R)-3-[3,5-Bis(trifluoromethyl)benzoyl]-5-(4-fluorophenyl)-1,3-oxazolidin-5-yl]ethyl}-2,3-dihydrospiro[indene-1,4′-piperidin]-2-yl]oxy}acetyl)(methyl)amino]propyl}(methyl)carbamoyl]phenyl}amino)pentanoyl](methyl)amino}ethyl)piperidin-4-yl biphenyl-2-ylcarbamate trihydrochloride] was run?
Its pKi is 9.13.

What about the ID50 [2] of the same molecule?
The ID50 was 0.0356 mg/kg.

And the ED50 [3]?
Its ED50 is 0.0202 mg/kg.

CN(CCN1CCC(OC(=O)Nc2ccccc2-c2ccccc2)CC1)C(=O)CCCCCNc1ccc(N(C)C(=O)CCCN(C)C(=O)CO[C@H]2Cc3ccccc3C23CCN(CC[C@@]2(c4ccc(F)cc4)CN(C(=O)c4cc(C(F)(F)F)cc(C(F)(F)F)c4)CO2)CC3)cc1 [Example 84, 1-(2-{[6-({4-[{-4-[({[(2S)-1′-{2-[(5R)-3-[3,5-Bis(trifluoromethyl)benzoyl]-5-(4-fluorophenyl)-1,3-oxazolidin-5-yl]ethyl}-2,3-dihydrospiro[indene-1,4′-piperidin]-2-yl]oxy}acetyl)(methyl)amino]butanoyl}(methyl)amino]phenyl}amino)hexanoyl](methyl)amino}ethyl)piperidin-4-yl biphenyl-2-ylcarbamate trihydrochloride] was tested. Which pKi [1] did it give?
The pKi was 9.05.

What about the ID50 [2] of the same molecule?
Its ID50 is 0.0143 mg/kg.

And the ED50 [3]?
The ED50 was 0.0357 mg/kg.

How did the pKi ([1]; COS cells expressing human NK2 receptor, [3H]SR 48968 1 nM, Ki from IC50 and Kd, read-out: Ki) turn out when CN(CCN1CCC(OC(=O)Nc2ccccc2-c2ccccc2)CC1)C(=O)CCCCCNc1ccc(C(=O)N(C)CCCN(C)C(=O)CO[C@H]2Cc3ccccc3C23CCN(CC[C@@]2(c4ccc(F)cc4)CN(C(=O)c4cc(C(F)(F)F)cc(C(F)(F)F)c4)CO2)CC3)cc1 [Example 72, 1-(2-{[6-({4-[{3-[({[(2S)-1′-{2-[(5R)-3-[3,5-Bis(trifluoromethyl)benzoyl]-5-(4-fluorophenyl)-1,3-oxazolidin-5-yl]ethyl}-2,3-dihydrospiro[indene-1,4′-piperidin]-2-yl]oxy}acetyl)(methyl)amino]propyl}(methyl)carbamoyl]phenyl}amino)hexanoyl](methyl)amino}ethyl)piperidin-4-yl biphenyl-2-ylcarbamate] was run?
Its pKi is 9.28.

And the ID50 [2]?
The ID50 was 0.0635 mg/kg.

What about the ED50 [3] of the same molecule?
Its ED50 is 0.0266 mg/kg.
